Experimental data taken from patent publication US8846949B2, “Pyrrolopyrazoles as N-type calcium channel blockers” (Janssen Pharmaceutica NV, priority 2012, dated 2014).
pIC50: −log10 of the molar value. Like-named read-outs stand apart in the source and are kept apart here.

Columns and labels:
[1] = target: T1, N-type calcium channel α1B (Cav2.2), β3 and α2δ subunits (Homo sapiens, UniProt Q00975); test: Functional assay, antagonism of N-type calcium channel (FDSS calcium mobilization response to KCl depolarization); assay type: cell-based; details: for pIC50: HEK stable cell line, 50 mM KCl depolarization, six-point concentration-response; for inhibition at 0.33 µM: 0.33 μM compound, FDSS, 50 mM KCl
T1 construct: expressed in transfected cells
Outline: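 HEK cells stably co-expressing α1B (Cav2.2), β3 and α2δ subunits were loaded with calcium dye, preincubated with compound for 5 min, then depolarized with 50 mM KCl and read for 3 min by FDSS fluorescence. IC50 from six-point curves, normalized to KCl maximum and buffer minimum.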

N-type calcium channel = target: T2, N-type calcium channel (Homo sapiens, UniProt Q00975); test: Automated electrophysiology assay (QPatch-HT whole-cell patch clamp); assay type: cell-based
T2 construct: expressed in transfected cells
Procedure: Cells were grown in T175 flasks to 50%-90% confluence. At the time of use, cells were enzymatically treated with Detachin (Genlantis, San Diego, Calif. USA), centrifuged, rinsed, and resuspended in 293 SFM II media (Life Technologies, Grand Island, N.Y. U.S.A.) supplemented with 25 mM HEPES (Sigma-Aldrich, St. Louis, Mo. U.S.A.) to a concentration of 2-3×10^6 cells/mL. Cells were added to the automated cell preparation station on the QPatch-HT (Sophion Biosciences, North Brunswick, N.J. U.S.A.), and following a 10- to 30-min recovery period with gentle stirring, the assay protocol was initiated. During the automated cell preparation, cells were collected, centrifuged and resuspended in an extracellular (EC) solution containing 132 mM NaCl, 1.8 mM CaCl2, 5.4 mM KCl, 0.8 mM MgCl2, 10 mM glucose, and 10 mM HEPES (pH=7.4), adjusted with sucrose to approximately 315 m0sm. The QPlate was primed with an intracellular solution containing 135 mM CsCl, 10 mM EGTA, 4 MgATP, 0.3 NaGTP, and 20 mM HEPES (pH=7.2), adjusted to approximately 290 m0sm with deionized water and the EC solution. Cells were added to the prepared QPlate wells by robotic pipettes of the QPatch-HT.
For cells determined to be in stable whole-cell patch clamp, the EC solution was replaced with a barium (Ba)/triethylammonium (TEA) solution containing 140 mM TEA-Cl, 10 mM BaCl2, 0.8 mM MgCl2, 10 mM glucose and 10 mM HEPES (pH=7.4). High (40 mM) BaCl2 concentrations were made with adjustments to TEA-C1 (90 mM) to maintain the osmolarity. From a resting potential of −80 mV, a train of depolarizing pulses (15 pulses at 5 Hz, +20 mV) was delivered to the cell once every 30 sec for eight trains (4 min total), and the resulting currents were measured during a control period (no compound). This protocol was repeated for each subsequent addition of control buffer with or without compound (three periods total, each with four trains). The current generated in the 1st and 15th pulses of the last train of each period in the presence of each drug concentration was normalized to the current generated during the control period at the respective pulses (representing low- and high-frequency stimulation, respectively). Data from both the second and third drug application periods were analyzed for each cell. A final addition of Ba/TEA solution containing 60-100 μM CdCl2 was made to block all N-type current and to “zero” the currents for each cell. All buffer/compound additions were made using a “spitting” feature of the QPatch-HT, which added three repetitions of 5 μL solution at the beginning of each recording period.
To examine closed-state inactivation, cells were subjected to a channel-activating 50-msec depolarizing step pulse from −80 to +10 mV, followed by a 5-sec nonactivating step to voltages ranging from −130 to −60 mV in 10 mV increments and then a 50-ms step from −80 to +10 mV to assess the remaining current. Currents from the activating voltage pulse were normalized to the peak value of the test pulse following the −130 mV step and fit to a Boltzman equation to obtain the V1/2. Roscovitine (Sigma-Aldrich) was prepared as a 100 mM stock in dimethyl sulfoxide and diluted to the indicated working concentrations. […]. Compounds of Formula (I) were diluted first into dimethyl sulfoxide and then into 10% pluronic F-127 in water (Life Technologies), sonicated for 1 min and diluted into EC buffer. Vehicle controls were run in parallel in all experiments.
Unless otherwise indicated, statistics for comparing among electrophysiological results utilized a one-way analysis of variance with Fisher's least squares determination test for pair-wise comparison.

[2] = high frequency (15th pulse of train, 5 Hz), read-out: QPatch at High Frequency % Inhibition
[3] = low frequency (1st pulse of train), read-out: QPatch at Low Frequency % Inhibition

T2 sequence (Q00975 whole entry): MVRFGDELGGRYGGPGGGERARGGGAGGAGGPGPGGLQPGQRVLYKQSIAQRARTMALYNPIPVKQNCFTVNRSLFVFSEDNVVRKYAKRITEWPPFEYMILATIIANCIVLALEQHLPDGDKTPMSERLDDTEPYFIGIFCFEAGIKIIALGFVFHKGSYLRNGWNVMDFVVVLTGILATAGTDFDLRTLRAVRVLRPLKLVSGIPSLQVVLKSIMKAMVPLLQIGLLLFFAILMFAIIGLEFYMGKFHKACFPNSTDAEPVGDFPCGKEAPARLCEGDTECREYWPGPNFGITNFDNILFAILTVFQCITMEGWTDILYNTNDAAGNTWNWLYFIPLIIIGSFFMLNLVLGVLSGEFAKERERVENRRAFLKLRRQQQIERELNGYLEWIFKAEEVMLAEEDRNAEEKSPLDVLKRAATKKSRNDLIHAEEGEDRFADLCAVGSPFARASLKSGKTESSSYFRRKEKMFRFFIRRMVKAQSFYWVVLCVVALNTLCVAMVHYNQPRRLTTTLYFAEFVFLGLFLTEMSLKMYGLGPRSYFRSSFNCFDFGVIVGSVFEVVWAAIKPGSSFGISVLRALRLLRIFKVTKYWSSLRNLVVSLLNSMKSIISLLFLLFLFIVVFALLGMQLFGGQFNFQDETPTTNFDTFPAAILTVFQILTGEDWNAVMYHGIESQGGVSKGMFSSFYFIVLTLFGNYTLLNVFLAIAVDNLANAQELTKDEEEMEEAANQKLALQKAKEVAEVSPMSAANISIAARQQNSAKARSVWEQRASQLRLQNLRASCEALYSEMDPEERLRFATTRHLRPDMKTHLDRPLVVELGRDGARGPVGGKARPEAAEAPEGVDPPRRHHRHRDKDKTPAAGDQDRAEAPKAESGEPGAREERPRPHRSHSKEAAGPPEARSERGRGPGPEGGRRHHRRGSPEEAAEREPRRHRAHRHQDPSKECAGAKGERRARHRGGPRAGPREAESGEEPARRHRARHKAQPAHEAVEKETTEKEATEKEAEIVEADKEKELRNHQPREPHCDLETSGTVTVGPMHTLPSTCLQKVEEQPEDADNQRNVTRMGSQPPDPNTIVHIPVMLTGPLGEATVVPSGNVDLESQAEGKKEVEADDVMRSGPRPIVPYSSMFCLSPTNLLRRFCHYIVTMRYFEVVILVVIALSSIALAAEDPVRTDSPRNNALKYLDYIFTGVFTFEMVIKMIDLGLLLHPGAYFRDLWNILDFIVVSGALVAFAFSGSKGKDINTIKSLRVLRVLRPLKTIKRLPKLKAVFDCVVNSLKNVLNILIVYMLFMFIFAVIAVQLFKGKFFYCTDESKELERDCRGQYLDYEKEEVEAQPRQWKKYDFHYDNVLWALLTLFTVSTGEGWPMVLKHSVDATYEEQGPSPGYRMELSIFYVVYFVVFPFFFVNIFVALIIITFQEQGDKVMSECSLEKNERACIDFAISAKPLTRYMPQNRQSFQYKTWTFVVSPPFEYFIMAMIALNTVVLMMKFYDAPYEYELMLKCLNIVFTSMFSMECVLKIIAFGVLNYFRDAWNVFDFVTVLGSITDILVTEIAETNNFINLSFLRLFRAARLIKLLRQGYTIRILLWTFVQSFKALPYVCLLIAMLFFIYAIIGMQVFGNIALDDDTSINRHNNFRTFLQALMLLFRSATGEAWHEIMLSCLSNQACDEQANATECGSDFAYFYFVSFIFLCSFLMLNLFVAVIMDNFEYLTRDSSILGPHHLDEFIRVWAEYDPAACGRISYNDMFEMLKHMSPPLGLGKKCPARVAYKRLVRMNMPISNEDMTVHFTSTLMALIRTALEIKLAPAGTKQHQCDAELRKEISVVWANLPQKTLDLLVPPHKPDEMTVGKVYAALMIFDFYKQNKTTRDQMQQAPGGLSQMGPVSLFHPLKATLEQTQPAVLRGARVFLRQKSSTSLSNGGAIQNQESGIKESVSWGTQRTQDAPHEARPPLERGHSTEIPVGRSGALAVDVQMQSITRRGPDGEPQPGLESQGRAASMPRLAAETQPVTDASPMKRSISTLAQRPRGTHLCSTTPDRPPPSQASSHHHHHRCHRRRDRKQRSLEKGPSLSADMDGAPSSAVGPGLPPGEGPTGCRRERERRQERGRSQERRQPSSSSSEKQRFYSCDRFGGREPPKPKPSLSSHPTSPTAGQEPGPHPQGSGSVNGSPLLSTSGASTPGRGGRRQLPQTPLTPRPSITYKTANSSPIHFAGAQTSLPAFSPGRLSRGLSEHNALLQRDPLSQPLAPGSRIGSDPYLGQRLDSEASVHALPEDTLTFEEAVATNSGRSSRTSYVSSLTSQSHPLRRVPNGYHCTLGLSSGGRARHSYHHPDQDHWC
T2 sequence (P54284 whole entry partner): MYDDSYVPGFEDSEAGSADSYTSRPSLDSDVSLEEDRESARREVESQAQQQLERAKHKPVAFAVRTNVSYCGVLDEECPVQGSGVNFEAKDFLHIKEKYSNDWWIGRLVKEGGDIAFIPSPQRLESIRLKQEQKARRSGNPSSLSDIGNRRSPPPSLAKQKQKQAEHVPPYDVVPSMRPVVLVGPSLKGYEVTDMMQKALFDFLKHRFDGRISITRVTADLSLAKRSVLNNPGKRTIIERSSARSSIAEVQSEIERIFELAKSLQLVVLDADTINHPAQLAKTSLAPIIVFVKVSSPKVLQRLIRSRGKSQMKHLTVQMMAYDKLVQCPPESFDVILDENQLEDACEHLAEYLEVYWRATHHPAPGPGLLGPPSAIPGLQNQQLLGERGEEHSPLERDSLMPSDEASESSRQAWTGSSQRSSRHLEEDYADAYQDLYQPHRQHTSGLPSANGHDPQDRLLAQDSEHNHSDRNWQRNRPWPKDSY
T2 sequence (P54289 25-956 partner limits assumed): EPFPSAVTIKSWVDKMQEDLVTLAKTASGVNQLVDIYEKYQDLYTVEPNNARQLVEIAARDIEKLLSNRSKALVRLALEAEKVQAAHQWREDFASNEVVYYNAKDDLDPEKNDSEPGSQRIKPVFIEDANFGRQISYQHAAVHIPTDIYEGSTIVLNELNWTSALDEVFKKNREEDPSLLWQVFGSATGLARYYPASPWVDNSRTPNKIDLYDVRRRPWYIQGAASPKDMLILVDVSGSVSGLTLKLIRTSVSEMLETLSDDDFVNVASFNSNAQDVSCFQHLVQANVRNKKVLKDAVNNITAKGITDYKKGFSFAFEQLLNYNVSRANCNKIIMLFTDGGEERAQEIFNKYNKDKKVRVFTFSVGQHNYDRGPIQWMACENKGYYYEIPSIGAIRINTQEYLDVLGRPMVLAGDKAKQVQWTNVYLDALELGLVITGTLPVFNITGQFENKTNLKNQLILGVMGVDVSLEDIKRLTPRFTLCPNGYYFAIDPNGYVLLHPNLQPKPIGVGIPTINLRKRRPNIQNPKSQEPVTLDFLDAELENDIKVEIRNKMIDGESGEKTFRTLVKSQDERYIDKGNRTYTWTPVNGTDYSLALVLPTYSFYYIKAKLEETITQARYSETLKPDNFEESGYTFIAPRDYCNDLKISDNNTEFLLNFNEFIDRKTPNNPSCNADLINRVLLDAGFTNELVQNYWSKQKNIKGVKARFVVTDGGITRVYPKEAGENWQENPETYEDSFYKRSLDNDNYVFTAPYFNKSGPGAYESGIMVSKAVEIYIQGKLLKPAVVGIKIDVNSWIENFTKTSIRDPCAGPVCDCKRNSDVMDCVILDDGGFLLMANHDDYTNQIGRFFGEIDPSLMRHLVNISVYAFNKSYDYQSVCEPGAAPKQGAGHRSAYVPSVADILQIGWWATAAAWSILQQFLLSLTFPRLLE
T2 sequence (P54289 957-1103 partner limits assumed): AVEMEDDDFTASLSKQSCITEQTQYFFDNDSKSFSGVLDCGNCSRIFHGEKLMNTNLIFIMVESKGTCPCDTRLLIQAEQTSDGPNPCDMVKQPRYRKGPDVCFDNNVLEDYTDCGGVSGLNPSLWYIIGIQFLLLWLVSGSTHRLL
T1 sequence (Q00975 whole entry): as the sequence (Q00975 whole entry) above
T1 sequence (P54284 whole entry partner): as the sequence (P54284 whole entry partner) above
T1 sequence (P54289 25-956 partner limits assumed): as the sequence (P54289 25-956 partner limits assumed) above
T1 sequence (P54289 957-1103 partner limits assumed): as the sequence (P54289 957-1103 partner limits assumed) above

pIC50 [1] | inhibition at 0.25 µM (N-type calcium channel; [2]) | inhibition at 0.25 µM (N-type calcium channel; [3]) | inhibition at 0.33 µM [1] | inhibition at 0.1 µM (N-type calcium channel; [2]) | inhibition at 0.1 µM (N-type calcium channel; [3]) | inhibition at 1 µM (N-type calcium channel; [2]) | inhibition at 1 µM (N-type calcium channel; [3]) | SMILES
7.57 | 42% | 22% | – | – | – | – | – | CC(C)S(=O)(=O)N1Cc2nn(-c3ccccc3OC(F)(F)F)c(-c3ccc(Cl)cc3)c2C1 [Cpd 35, 3-(4-Chlorophenyl)-5-[(1-methylethyl)sulfonyl]-2-[2-(trifluoromethoxy)phenyl]-2,4,5,6-tetrahydropyrrolo[3,4-c]pyrazole]
7.82 | 58% | 42% | – | – | – | – | – | COc1ccccc1-n1nc2c(c1-c1ccc(Cl)cc1)CN(S(=O)(=O)CC(F)(F)F)C2 [Cpd 36, 3-(4-Chlorophenyl)-2-(2-methoxyphenyl)-5-[(2,2,2-trifluoroethyl)sulfonyl]-2,4,5,6-tetrahydropyrrolo[3,4-c]pyrazole]
7.80 | 73% | 61% | – | – | – | – | – | COc1ccccc1-n1nc2c(c1-c1ccc(Cl)cc1)CN(S(=O)(=O)C1CCCCC1)C2 [Cpd 37, 3-(4-Chlorophenyl)-5-(cyclohexylsulfonyl)-2-(2-methoxyphenyl)-2,4,5,6-tetrahydropyrrolo[3,4-c]pyrazole]
7.92 | 69% | 57% | – | – | – | – | – | COc1ccccc1-n1nc2c(c1-c1ccc(Cl)cc1)CN(S(=O)(=O)C1CCCC1)C2 [Cpd 40, 3-(4-Chlorophenyl)-5-(cyclopentylsulfonyl)-2-(2-methoxyphenyl)-2,4,5,6-tetrahydropyrrolo[3,4-c]pyrazole]
7.72 | – | – | 90% | 40% | 7% | 91% | 80% | CCCC(C)S(=O)(=O)N1Cc2nn(-c3ccccc3OC)c(-c3ccc(Cl)cc3)c2C1 (stereo not shown) [Cpd 41, 3-(4-Chlorophenyl)-2-(2-methoxyphenyl)-5-[(1-methylbutyl)sulfonyl]-2,4,5,6-tetrahydropyrrolo[3,4-c]pyrazole]
8.05 | – | – | – | -5% | -2% | – | – | COc1ccccc1-n1nc2c(c1-c1ccc(Cl)cc1)CN(S(=O)(=O)CCNS(C)(=O)=O)C2 [Cpd 44, N-(2-{[3-(4-Chlorophenyl)-2-(2-methoxyphenyl)-2,6-dihydropyrrolo[3,4-c]pyrazol-5(4H)-yl]sulfonyl}ethyl)methanesulfonamide]
7.89 | – | – | – | 26% | 26% | – | – | COc1ccccc1-n1nc2c(c1-c1ccc(Cl)cc1)CN(S(=O)(=O)CCNS(=O)(=O)C(C)C)C2 [Cpd 45, N-(2-{[3-(4-Chlorophenyl)-2-(2-methoxyphenyl)-2,6-dihydropyrrolo[3,4-c]pyrazol-5(4H)-yl]sulfonyl}ethyl)propane-2-sulfonamide]
8.30 | – | – | – | -6% | -8% | – | – | COc1ccccc1-n1nc2c(c1-c1ccc(Cl)cc1)CN(S(=O)(=O)CCNS(=O)(=O)N(C)C)C2 [Cpd 46, N′-(2-{[3-(4-Chlorophenyl)-2-(2-methoxyphenyl)-2,6-dihydropyrrolo[3,4-c]pyrazol-5(4H)-yl]sulfonyl}ethyl)-N,N-dimethylsulfamide]
7.51 | – | – | – | 36% | 8% | – | – | COC(=O)CCS(=O)(=O)N1Cc2nn(-c3ccccc3OC(F)(F)F)c(-c3ccc(Cl)cc3)c2C1 [Cpd 47, Methyl 3-{[3-(4-chlorophenyl)-2-[2-(trifluoromethoxy)phenyl]-2,6-dihydropyrrolo[3,4-c]pyrazol-5(4H)-yl]sulfonyl}propanoate]
8.70 | – | – | – | 22% | 18% | – | – | CCOc1ccccc1-n1nc2c(c1-c1ccc(Cl)cc1)CN(S(C)(=O)=O)C2 [Cpd 49, 3-(4-Chlorophenyl)-2-(2-ethoxyphenyl)-5-(methylsulfonyl)-2,4,5,6-tetrahydropyrrolo[3,4-c]pyrazole]
8.52 | – | – | – | 50% | 42% | – | – | CCOc1ccccc1-n1nc2c(c1-c1ccc(Cl)cc1)CN(S(=O)(=O)C(C)C)C2 [Cpd 50, 3-(4-Chlorophenyl)-2-(2-ethoxyphenyl)-5-[(1-methylethyl)sulfonyl]-2,4,5,6-tetrahydropyrrolo[3,4-c]pyrazole]
8.30 | – | – | – | 47% | 37% | – | – | CCOc1ccccc1-n1nc2c(c1-c1ccc(Cl)cc1)CN(S(=O)(=O)C1CCCC1)C2 [Cpd 51, 3-(4-Chlorophenyl)-5-(cyclopentylsulfonyl)-2-(2-ethoxyphenyl)-2,4,5,6-tetrahydropyrrolo[3,4-c]pyrazole]
8.70 | – | – | – | 50% | 40% | – | – | CCOc1ccccc1-n1nc2c(c1-c1ccc(Cl)cc1)CN(S(=O)(=O)C1CCCCC1)C2 [Cpd 52, 3-(4-Chlorophenyl)-5-(cyclohexylsulfonyl)-2-(2-ethoxyphenyl)-2,4,5,6-tetrahydropyrrolo[3,4-c]pyrazole]
8.70 | – | – | – | 46% | 36% | – | – | CCOc1ccccc1-n1nc2c(c1-c1ccc(Cl)cc1)CN(S(=O)(=O)N(C)C)C2 [Cpd 54, 3-(4-Chlorophenyl)-2-(2-ethoxyphenyl)-N,N-dimethyl-2,6-dihydropyrrolo[3,4-c]pyrazole-5(4H)-sulfonamide]
8.15 | – | – | – | 54% | 25% | – | – | COc1ccccc1-n1nc2c(c1-c1ccc(Cl)cc1)CN(S(=O)(=O)N1CCCCCC1)C2 [Cpd 55, 5-(Azepan-1-ylsulfonyl)-3-(4-chlorophenyl)-2-(2-methoxyphenyl)-2,4,5,6-tetrahydropyrrolo[3,4-c]pyrazole]
8.52 | – | – | – | 36% | 28% | – | – | CCN(CC)S(=O)(=O)N1Cc2nn(-c3ccccc3OC)c(-c3ccc(Cl)cc3)c2C1 [Cpd 56, 3-(4-Chlorophenyl)-N,N-diethyl-2-(2-methoxyphenyl)-2,6-dihydropyrrolo[3,4-c]pyrazole-5(4H)-sulfonamide]
8.10 | – | – | 95% | – | – | 82% | 69% | COc1ccccc1-n1nc2c(c1-c1ccc(Cl)cc1)CN(S(=O)(=O)N1CCC(C)CC1)C2 [Cpd 57, 3-(4-Chlorophenyl)-2-(2-methoxyphenyl)-5-[(4-methylpiperidin-1-yl)sulfonyl]-2,4,5,6-tetrahydropyrrolo[3,4-c]pyrazole]
8.30 | – | – | – | 52% | 53% | – | – | COC(=O)C1CCN(S(=O)(=O)N2Cc3nn(-c4ccccc4OC)c(-c4ccc(Cl)cc4)c3C2)CC1 [Cpd 58, Methyl 1-{[3-(4-chlorophenyl)-2-(2-methoxyphenyl)-2,6-dihydropyrrolo[3,4-c]pyrazol-5(4H)-yl]sulfonyl}piperidine-4-carboxylate]
8.70 | – | – | – | 51% | 28% | – | – | COc1ccccc1-n1nc2c(c1-c1ccc(Cl)cc1)CN(S(=O)(=O)N1CCOCC1)C2 [Cpd 59, 3-(4-Chlorophenyl)-2-(2-methoxyphenyl)-5-(morpholin-4-ylsulfonyl)-2,4,5,6-tetrahydropyrrolo[3,4-c]pyrazole]
